Where two headings read alike, the source gives them in different places.
Assays:
[1] = test system: K562 cells; assay: MTS assay, cytotoxicity (growth inhibition) on K562; assay type: cell-based, human; conditions: for Metabolic Activity K562: MTS, 3-6 days, DMSO control = 100%
Experimental: The cell line is widely available, e.g., from American Type Culture Collection (“ATCC”; Manassas, Va., USA; cat# CCL-243) and can be propogated in a variety of media, e.g., ATCC's Iscove's modified Dulbecco's medium with 4 mM L-glutamine adjusted to contain 1.5 g/L sodium bicarbonate, 90%; fetal bovine serum, 10%; 37C.
(§1) To K562 cells (suspension grown in DMEM media supplemented w/10% Fetal Bovine Serum (FBS) and 1 mM HEPES; subcultured biweekly at 100K cells/ml) in a 96 well plate (0.1 ml medium; 2000 cells per well) were added various concentrations of 17-AAG (CF7) and the effects measured over a period of 3-6 days using an MTS assay protocol similar to that offered by Promega Corp (Madison, Wis., US; cat# G5421).
(§2) The MTS assay is a colorimetric assay for determining the number of viable cells in proliferation, cytotoxicity or chemosensitivity assays. The CellTiter 96® AQueous Assay is composed of solutions of tetrazolium compound (3-(4,5-dimethylthiazol-2-yl)-5-(3-carboxymethoxyphenyl)-2-(4-sulfophenyl)-2H-tetrazolium, inner salt; MTS) and an electron coupling reagent (phenazine methosulfate) PMS. MTS is bioreduced by cells into a formazan that is soluble in tissue culture medium. Barltrop et al. (1991) Bioorg. & Med. Chem. Lett. 1, 611. The absorbance of the formazan at 490 nm can be measured directly from 96 well assay plates without additional processing. Cory et al. (1991) Cancer Commun. 3, 207; Riss, T. L. and Moravec, R. A. (1992) Mol. Biol. Cell 3 (Suppl.), 184a. The conversion of MTS into the aqueous soluble formazan is accomplished by dehydrogenase enzymes found in metabolically active cells. The quantity of formazan product as measured by the amount of 490 nm absorbance is directly proportional to the number of living cells in culture.
(§3) Using the MTS assay, cytotoxicity (defined as “growth inhibition” and not necessarily versus renal proximal tubular […] cells (normal cells) was determined as shown in the following Tables. “Sem” refers to standard error of the mean, which is calculated as the standard deviation divided by the square root of the sample size; the numbers reflect triplicate replicates. Dilutions of the compounds were prepared in DMSO and straight DMSO was used as a control corresponding to 100% metabolic activity.

[2] = test system: RPTEC; assay: MTS assay, cytotoxicity (growth inhibition) on normal cells RPTEC; assay type: cell-based; conditions: for Metabolic Activity RPTEC: MTS, 3-6 days, DMSO control = 100%; for IC50: read-out: RPTEC IC50
Experimental: as §1, §2, §3

[3] = test system: bcr-abl expressing leukemia cell lines; conditions: average of six cell lines; read-out: IC50 averaged in six bcr-abl expressing leukemia cell lines; cited from earlier work
[4] = test system: bcr-abl-negative leukemia lines; conditions: mean of four cell lines; read-out: mean IC50 in a panel of four bcr-abl-negative leukemia lines; cited from earlier work
[5] = Homo sapiens, K562, read-out: K562 IC50
[6] = separate study, compared with compound 237

C=CCNC1=C2C[C@@H](C)C[C@H](OC)[C@H](O)[C@@H](C)/C=C(\C)[C@H](OC(N)=O)[C@@H](OC)/C=C\C=C(/C)C(=O)NC(=CC1=O)C2=O [CF7, 17-allylamino-17-demethoxygeldanamycin]
Metabolic Activity K562 ([1]; 0.0003 uM): 88.00%
Metabolic Activity K562 ([1]; 0.0010 uM): 83.81%
Metabolic Activity K562 ([1]; 0.0030 uM): 83.00%
Metabolic Activity K562 ([1]; 0.0100 uM): 85.94%
Metabolic Activity K562 ([1]; 0.0300 uM): 80.12%
Metabolic Activity K562 ([1]; 0.1000 uM): 44.06%
Metabolic Activity K562 ([1]; 0.3000 uM): 14.40%
Metabolic Activity K562 ([1]; 1.0000 uM): 9.51%
Metabolic Activity K562 ([1]; 3.0000 uM): 8.12%
Metabolic Activity K562 ([1]; 10.0000 uM): 7.89%
IC50 ([1]; bcr-abl fusion protein cancer line, MTS assay, read-out: K562 IC50): 70 nM
Metabolic Activity RPTEC ([2]; 0.0003 uM): 98.69%
Metabolic Activity RPTEC ([2]; 0.0010 uM): 92.26%
Metabolic Activity RPTEC ([2]; 0.0030 uM): 92.73%
Metabolic Activity RPTEC ([2]; 0.0100 uM): 91.81%
Metabolic Activity RPTEC ([2]; 0.0300 uM): 86.40%
Metabolic Activity RPTEC ([2]; 0.1000 uM): 86.46%
Metabolic Activity RPTEC ([2]; 0.3000 uM): 58.03%
Metabolic Activity RPTEC ([2]; 1.0000 uM): 34.01%
Metabolic Activity RPTEC ([2]; 3.0000 uM): 22.01%
Metabolic Activity RPTEC ([2]; 10.0000 uM): 20.10%
IC50 ([2]; normal cells, MTS assay): 400 nM

COC1/C=C\C=C(/C)C(=O)NC2=CC(=O)C(NCCCN(C)CCCNC3=C4CC(C)CC(OC)C(O)C(C)/C=C(\C)C(OC(N)=O)C(OC)/C=C\C=C(/C)C(=O)NC(=CC3=O)C4=O)=C(CC(C)CC(OC)C(O)C(C)/C=C(\C)C1OC(N)=O)C2=O (stereo not shown) [Compound 208]
IC50 [1, 5]: 50 nM
IC50 ([2]; Homo sapiens, RPTEC): 1000 nM

COC1/C=C\C=C(/C)C(=O)NC2=CC(=O)C(NCCCNCCCNC3=C4CC(C)CC(OC)C(O)C(C)/C=C(\C)C(OC(N)=O)C(OC)/C=C\C=C(/C)C(=O)NC(=CC3=O)C4=O)=C(CC(C)CC(OC)C(O)C(C)/C=C(\C)C1OC(N)=O)C2=O (stereo not shown) [Compound 237]
IC50 [1, 5]: 100 nM
IC50 ([2]; Homo sapiens, RPTEC): 4000 nM

CCCNC/C=C/CNC1=C2CC(C)CC(OC)C(O)C(C)/C=C(\C)C(OC(N)=O)C(OC)/C=C\C=C(/C)C(=O)NC(=CC1=O)C2=O (stereo not shown) [Compound 481]
IC50 [1, 5]: 400 nM
IC50 ([2]; Homo sapiens, RPTEC): 4000 nM

COC1/C=C\C=C(/C)C(=O)NC2=CC(=O)C(NCCN(C)CCNC3=C4CC(C)CC(OC)C(O)C(C)/C=C(\C)C(OC(N)=O)C(OC)/C=C\C=C(/C)C(=O)NC(=CC3=O)C4=O)=C(CC(C)CC(OC)C(O)C(C)/C=C(\C)C1OC(N)=O)C2=O (stereo not shown) [Compound 483]
IC50 ([1]; Homo sapiens, K562, bcr-abl fusion protein cancer line, MTS assay, read-out: K562 IC50): 70 nM
IC50 ([2]; Homo sapiens, RPTEC): 1000 nM

CO[C@H]1[C@@H](OC)C[C@H](C)[C@@H](OC)C2=CC(=O)C=C(NC(=O)/C(C)=C/C=C\[C@H](OC)[C@@H](OC(N)=O)/C(C)=C/[C@@H]1C)C2=O [herbimycin A]
IC50 [3]: 29.3 nM
IC50 [4]: 399 nM

C[C@@H]1C[C@H]2O[C@@H]2/C=C\C=C\C(=O)Cc2c(Cl)c(O)cc(O)c2C(=O)O1 [radicicol]
effect on K562 (separate study) [1, 6]: approximating those obtained for compound 237
effect on RPTEC (separate study) [2, 6]: approximating those obtained for compound 237

— patent US20060079493A1, “Methods for treating genetically- defined proliferative disorders with hsp90 inhibitors” (priority 2001, published 2006)
